# Data taken from US20110262025A1, “Cosmetic Compositions and Methods for Maintaining and Improving Barrier Function of the Stratum Corneum and to Reduce the Visible Signs of Aging in Skin” (priority 2010, published 2011).
# Where a SMILES comes first, the peptide text is derived from it. The star is where a group is joined. Cbz = O=C(OCc1ccccc1)*; CH2F = FC*
# Assays:
# Aquaporin 3 = experiment: Multiplex mRNA analysis (Panomics QuantiGene Plex) in keratinocytes; type: cell-based; conditions: neonatal human keratinocytes, 24 hours, vs no treatment
# Description: A multiplex mRNA analysis was conducted. RNA was isolated from neonatal human keratinocytes. Neonatal human keratinocytes (Cascade Biologics # C-001-5C) were grown to 40% confluence in 6-well tissue culture plates then treated with compounds for 24 hours (3 replicates per treatment). The treatments included several concentrations of Hexamidine, Niacinamide, and /or Pentanediol. Additionally, 0.00194% (100 μM) caffeine and no-treatment controls were performed.
# Several targets were measured with Panomics QuantiGene Plex Assay kit, a multi-analyte quantitative bead-based assay. The fluorescence intensity values, measured by a Bio-Rad Bio-Plex 100 instrument, for those samples yielding sufficient RNA are shown for Aquaporin 3, CDD44 antigen, and Claudin 1. Also measured were Glyceraldehyde-3-phosphate dehydrogenase, Collagen 1α2, Filaggrin, Serine palmitoyltransferase, Interleukin 1,3-hydroxy-3methylglutaryl-coenzyme A reductase, and Interferon gamma.
# [1] = tested on: genes associated with SC lipid pathways, Dermaquant model keratinocytes and fibroblasts; experiment: Transcriptional profiling (Affymetrix U133A plus 2) in aged-equivalent skin culture; type: cell-based, human; conditions: 0.1% Hexamidine vs vehicle (water), 4-48 hours
# Description: The Experimental design is set forth in Table I. Cultures were treated and harvested at indicated time points. Total RNA extraction, labeling and hybridization to AffymetrixTM U133A plus 2 gene chips were conducted. Data were subjected to normalization and statistical analysis.
# Epiderm 201 cultures = experiment: TEWL (evaporimeter) in epidermal cultures; type: cell-based, human; conditions: 1% Niacinamide, 24 hour treatment
# Description: Biomarker endpoints and certain clinical skin instrumental measurements, such as those used for skin barrier determinations, can be detected in skin equivalent cultures. As noted above, the stratum corneum barrier consists of flattened, terminally differentiated corneocytes surrounded by specialized lamellar lipids, which act to retard loss of water from the skin's surface. Water loss can be measured functionally by use of an evaporimeter instrument wherein the endpoint measured is TEWL, and is expressed in units of grams of water per skin per hour. In one validity test the present inventors took epidermal cultures from a commercial supplier (Epiderm 201 cultures from MatTek Corp., Ashland Mass.) grew them in cultures for four days whereby the number of differentiated cell layers and stratum corneum thickness was increased during this period. […] These findings indicate that in vitro epidermal constructs form a functional water barrier that can be enhanced by compounds such as Niacinamide.
# cornification = conditions: after barrier disruption; cited from earlier work
compound,measurement,setting,value
"N=C(N)c1ccc(OCCCCCCOc2ccc(C(=N)N)cc2)cc1 [Hexamidine, 4,4′-(hexamethylenedioxy)dibenzenecarboximidamide]",Aquaporin 3 expression,Aquaporin 3,upregulated
same,cellular cholesterol and fatty acid uptake mechanisms,[1],up-regulation
same,expression of gene involved in LB formation (ABCAl2),[1],Increased expression
same,expression of gene involved in LB secretion (ABHD5),[1],Increased expression
same,gene encoding rate limiting enzyme in biosynthesis of cholesterol (HMGCR),[1],up-regulation
same,gene encoding rate limiting enzyme in biosynthesis of fatty acid (ACACA),[1],up-regulation
same,gene encoding rate limiting enzyme in biosynthesis of sphingolipid (SPTLC1/2),[1],up-regulation
same,mitochondrial cholesterol and fatty acid utilization pathways,[1],down-regulation
same,transcriptional activators of genes involved in lipid metabolism,[1],up-regulation
NC(=O)c1cccnc1 [Niacinamide],TEWL levels,Epiderm 201 cultures,reduced further
COC(=O)C[C@H](NC(=O)[C@H](C)NC(=O)[C@@H](NC(=O)OCc1ccccc1)C(C)C)C(=O)CF [Z-VAD-FMK] (Cbz-Val-Ala-Asp(OMe)-CH2F),cornification,cornification,delays
Pentanediol,Aquaporin 3 expression,Aquaporin 3,upregulated
